Source: ChEMBL document CHEMBL5727600, “1,4-dicarbonyl-piperidyl derivatives” (2020)

Legend:
[1] = molecular target: T1, Poly [ADP-ribose] polymerase tankyrase-1 (Homo sapiens, UniProt O95271); test: Biochemical Activity Assay: TNKS 1 and 2: The activity ELISA is performed in 384 well Glutathione coated microtiter plates (Express capture Glutathione coated plate, Biocat, Heidelberg, Germany). The plates are pre-equilibrated with PBS. Then the plates are incubated with 50 μl 20 ng/well GST-tagged Tnks-1 (1023-1327 aa, prepared in-house), respectively GST-tagged Tnks-2 (873-1166 aa, prepared in-house) in assay buffer (50 mM HEPES, 4 mM Mg-chloride, 0.05% Pluronic F-68, 2 mM DTT, pH 7.7) overnight at 4° C. The plates are washed 3 times with PBS-Tween-20. The wells are blocked by incubation at room temperature for 20 minutes with 50 μl blocking buffer (PBS, 0.05% Tween-20, 0.5% BSA). Afterwards the plates are washed 3 times with PBS-Tween-20. The enzymatic reaction is performed in 50 μl reaction solution (50 mM HEPES, 4 mM Mg-chloride, 0.05% Pluronic F-68, 1.4 mM DTT, 0.5% DMSO, pH 7.7) with 10 μM bio-NAD (Biolog, Life science Inst., Bremen, Germany) as co-substrate in the absence or presence of the test compound (10 dilution concentrations) for 1 hour at 30° C. The reaction is stopped by 3 times washing with PBS-Tween-20. For the detection 50 μl of 20 ng/μl Streptavidin, HRP conjugate (MoBiTec, Göttingen, Germany) in PBS/0.05% Tween-20/0.01% BSA are added and the plates are incubated for 30 minutes at room temperature. […]
T1 sequence (O95271 whole entry): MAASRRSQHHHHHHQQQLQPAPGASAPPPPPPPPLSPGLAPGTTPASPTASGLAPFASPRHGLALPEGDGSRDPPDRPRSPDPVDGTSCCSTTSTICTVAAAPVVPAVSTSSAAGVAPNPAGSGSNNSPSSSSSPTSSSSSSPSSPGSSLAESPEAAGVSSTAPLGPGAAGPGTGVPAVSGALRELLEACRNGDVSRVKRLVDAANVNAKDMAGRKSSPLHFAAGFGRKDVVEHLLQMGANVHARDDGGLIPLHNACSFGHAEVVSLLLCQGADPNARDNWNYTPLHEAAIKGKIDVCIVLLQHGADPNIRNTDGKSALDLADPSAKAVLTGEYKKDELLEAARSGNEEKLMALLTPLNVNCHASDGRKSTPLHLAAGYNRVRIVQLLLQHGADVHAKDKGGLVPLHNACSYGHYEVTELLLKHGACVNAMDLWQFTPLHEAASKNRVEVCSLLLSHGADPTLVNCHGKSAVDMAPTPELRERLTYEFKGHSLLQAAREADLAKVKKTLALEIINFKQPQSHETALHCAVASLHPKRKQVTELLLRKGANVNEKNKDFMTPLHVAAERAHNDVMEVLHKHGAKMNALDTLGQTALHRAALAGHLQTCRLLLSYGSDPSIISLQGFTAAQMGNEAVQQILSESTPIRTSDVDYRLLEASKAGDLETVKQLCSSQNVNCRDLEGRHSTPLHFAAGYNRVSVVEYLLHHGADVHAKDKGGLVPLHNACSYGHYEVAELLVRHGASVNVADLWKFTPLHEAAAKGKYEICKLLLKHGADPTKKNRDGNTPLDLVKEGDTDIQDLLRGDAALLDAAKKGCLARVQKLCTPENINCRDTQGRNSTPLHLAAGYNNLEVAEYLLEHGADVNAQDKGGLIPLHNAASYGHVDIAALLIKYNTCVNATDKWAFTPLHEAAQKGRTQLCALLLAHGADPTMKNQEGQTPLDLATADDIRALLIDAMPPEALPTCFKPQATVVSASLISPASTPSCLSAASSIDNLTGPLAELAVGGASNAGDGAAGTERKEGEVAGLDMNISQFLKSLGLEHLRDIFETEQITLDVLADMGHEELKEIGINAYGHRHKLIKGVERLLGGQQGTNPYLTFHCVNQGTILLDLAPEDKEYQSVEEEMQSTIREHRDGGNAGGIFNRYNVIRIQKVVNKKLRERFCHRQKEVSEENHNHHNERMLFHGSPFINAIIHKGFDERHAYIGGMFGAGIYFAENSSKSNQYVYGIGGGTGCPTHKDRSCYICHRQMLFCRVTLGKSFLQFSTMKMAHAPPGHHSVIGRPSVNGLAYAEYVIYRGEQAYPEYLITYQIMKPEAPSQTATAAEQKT

[2] = molecular target: T2, Poly [ADP-ribose] polymerase tankyrase-2 (Homo sapiens, UniProt Q9H2K2); test: Biochemical Activity Assay: TNKS 1 and 2: The activity ELISA is performed in 384 well Glutathione coated microtiter plates (Express capture Glutathione coated plate, Biocat, Heidelberg, Germany). The plates are pre-equilibrated with PBS. Then the plates are incubated with 50 μl 20 ng/well GST-tagged Tnks-1 (1023-1327 aa, prepared in-house), respectively GST-tagged Tnks-2 (873-1166 aa, prepared …
T2 sequence (Q9H2K2 whole entry): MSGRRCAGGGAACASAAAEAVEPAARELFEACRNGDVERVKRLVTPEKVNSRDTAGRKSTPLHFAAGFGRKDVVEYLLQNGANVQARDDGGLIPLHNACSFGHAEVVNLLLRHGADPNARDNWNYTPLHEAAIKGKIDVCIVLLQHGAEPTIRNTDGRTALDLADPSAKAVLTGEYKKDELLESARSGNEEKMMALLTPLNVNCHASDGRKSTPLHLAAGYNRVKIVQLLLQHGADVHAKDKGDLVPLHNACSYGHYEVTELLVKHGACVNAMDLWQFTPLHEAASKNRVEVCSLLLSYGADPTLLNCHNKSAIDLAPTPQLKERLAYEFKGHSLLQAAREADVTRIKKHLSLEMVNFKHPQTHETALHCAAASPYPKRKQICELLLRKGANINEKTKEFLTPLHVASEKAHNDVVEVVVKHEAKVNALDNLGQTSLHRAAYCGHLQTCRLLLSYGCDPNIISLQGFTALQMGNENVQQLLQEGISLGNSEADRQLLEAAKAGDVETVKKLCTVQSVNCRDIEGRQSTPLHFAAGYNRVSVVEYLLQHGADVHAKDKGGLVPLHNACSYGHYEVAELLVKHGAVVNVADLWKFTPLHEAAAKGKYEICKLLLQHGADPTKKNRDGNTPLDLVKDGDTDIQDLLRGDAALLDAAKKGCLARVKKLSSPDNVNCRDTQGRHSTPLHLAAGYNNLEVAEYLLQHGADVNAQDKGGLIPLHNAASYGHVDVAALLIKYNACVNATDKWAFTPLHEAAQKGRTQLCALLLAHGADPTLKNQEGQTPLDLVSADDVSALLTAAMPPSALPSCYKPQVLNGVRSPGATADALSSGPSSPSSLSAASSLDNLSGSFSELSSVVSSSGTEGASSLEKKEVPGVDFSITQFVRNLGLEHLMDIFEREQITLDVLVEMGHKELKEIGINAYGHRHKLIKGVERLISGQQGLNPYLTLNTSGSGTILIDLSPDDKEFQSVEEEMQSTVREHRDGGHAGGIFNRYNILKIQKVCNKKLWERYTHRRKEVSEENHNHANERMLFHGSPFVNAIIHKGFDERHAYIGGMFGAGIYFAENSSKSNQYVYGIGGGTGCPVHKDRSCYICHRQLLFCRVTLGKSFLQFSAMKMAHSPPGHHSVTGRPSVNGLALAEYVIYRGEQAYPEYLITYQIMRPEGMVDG

**Q.** Which IC50 [1] does the source give for `Cc1cc(F)cc2c(=O)[nH]c(C[C@@H](C)CC(=O)N3CCC(C(=O)c4cnn(C)c4)CC3)nc12` here?
**A.** 0.66 nM

**Q.** And the IC50 [2]?
**A.** 0.59 nM

**Q.** For `Cc1cc(F)cc2c(=O)[nH]c(C[C@H](C)CC(=O)N3CCC(C(=O)c4cnn(C)c4)CC3)nc12`, which IC50 [1] is on record?
**A.** 0.31 nM

**Q.** What about the IC50 [2] of the same molecule?
**A.** 0.2 nM
